pIC50: −log10 of the molar value.
Tests used:
[1] = test system: Type II collagen arthritis; test: Type II collagen arthritis mouse model; type: in vivo; conditions: DBA/1 mice, some / other components/aspects of the arthritis, Example 7
Procedure: The study uses a mouse model of inflammatory disease that occurs in response to an antigenic challenge with Type II collagen according to method described in Nature, 283, 666-668 […]. DBA/1 mice are immunized with a suspension of fetal bovine Type II collagen (1 mg/ml) prepared in complete Freund's adjuvant. The primary injection is given using 0.1 ml of the collagen emulsion giving a total of 0.1 mg of Type II collagen per mouse. The animals are given a booster injection of Type II collagen (100 μg in 0.01M acetic acid) on day 21 by intraperitoneal injection.
The effect of methotrexate and test compounds racemic PDX, PDX-10a and PDX-10b on the extent of inflammation is determined by visual observation and by direct analysis of paw swelling using caliper measurements.

[2] = Pharmacokinetics in dog (PDX-T-07054-D); type: in vivo; conditions: for clearance / Vd / half-life: dog, plasma, 0.7 mg/kg; for half-life: read-out: t1/2 term
Procedure: Bioanalytical methods were developed and validated for quantitation of the 2 pralatrexate C10 diastereomers (PDX-10a and PDX-10b) in human, rat and dog plasma and urine. The basic bioanalytical method involves extraction of PDX-10a and PDX-10b from the matrix utilizing C18 solid-phase extraction (SPE) cartridges followed by derivatization (methylation with acetyl chloride) of the diastereomers for separation detection. The derivatized extracts are injected on a chiral high-performance liquid chromatography (HPLC) column for quantitation of each diastereomer by liquid chromatography-tandem mass spectrometry (LC/MS/MS). The lower limit of quantitation (LLOQ) for both diastereomers in plasma and urine matrices was 0.5 ng/mL. […]

[3] = Pharmacokinetics in human (PDX-008, noncompartmental); type: in vivo; conditions: for Vd / clearance / half-life: human, plasma, intravenous; for half-life: read-out: t1/2 term
Procedure: Bioanalytical methods were developed and validated for quantitation of the 2 pralatrexate C10 diastereomers (PDX-10a and PDX-10b) in human, rat and dog plasma and urine. The basic bioanalytical method involves extraction of PDX-10a and PDX-10b from the matrix utilizing C18 solid-phase extraction (SPE) cartridges followed by derivatization (methylation with acetyl chloride) of the diastereomers for separation detection. The derivatized extracts are injected on a chiral high-performance liquid chromatography (HPLC) column for quantitation of each diastereomer by liquid chromatography-tandem mass spectrometry (LC/MS/MS). The lower limit of quantitation (LLOQ) for both diastereomers in plasma and urine matrices was 0.5 ng/mL.
In humans, PDX-10b clearance was approximately 50% lower for both renal clearance (CLren) and nonrenal clearance (CLnonren). The lower clearance and ˜2-fold lower volume of distribution at steady state (Vdss) of PDX-10b are likely responsible for the 2-fold higher plasma exposure of PDX-10b compared with PDX-10a that is observed in humans. However, the plasma concentration-time profiles for both diastereomers declined in parallel, and terminal elimination half-life (t1/2term) for both diastereomers was virtually identical. The biological cause for the observed stereoselectivity across species is unknown, but may be due to isomeric differences in plasma protein binding. Isomeric differences in tissue distribution and/or renal and hepatobiliary transport may contribute as well.

[4] = test system: CWR22-RV1 (prostate) cell lines; test: MTS growth inhibition assay, CWR22-RV1; type: cell-based; conditions: Homo sapiens, CWR22Rv1, separate experiments
tumor xenotransplant = test: In vivo xenograft models with solid tumors and lymphomas; conditions: nude female mice, IP injection; some / other explants; Example 6
Procedure: Nude female mice are inoculated subcutaneously in the right flank with appropriate tumor cells as discussed in Example 5 to establish the xenotransplant. Tumor volume and body weights are monitored twice a week. Once the established tumor reaches 75-150 mm^3 the mice are randomized to a treatment group, either control, racemic PDX, PDX-10a, or PDX-10b. Treatments are administered by IP injection. Phosphate buffered saline is administered as control vehicles.

[5] = Population pharmacokinetics in cancer patients after racemic PDX; conditions: 3-compartment model, 154 cancer patients, IV racemic PDX
Procedure: Population (POP) pharmacokinetic (PK) parameters and effects of covariate factors (COV) for PDX-10a and PDX-10b after administration of racemic PDX in cancer patients were analyzed. POPPK data were pooled from 3 studies: 1) a phase 1 study in non-small lung cancer patients with intravenous (IV) doses of 150-325 mg/m^2, 2) a phase 1 study in advanced cancer patients with IV doses of 80-140 mg/m^2 plus a taxane, and 3) a phase 2 study in patients with relapsed or refractory PTCL at a dose of 30 mg/m^2/week IV. POP PK data for each diastereomer were analyzed using nonlinear mixed effects modeling with first-order conditional estimation. Model qualification included non-parametric bootstrap and predictive checks. Results: The POP PK database was comprised of 154 patients (94 males & 60 females, ages 21-85 years, weights 42.9-158 kg), contributing 1176 PDX-10a and 1173 PDX-10b plasma concentrations.

[6] = test system: type II collagen arthritis; test: Type II collagen arthritis rat model; type: in vivo; conditions: female Lewis rats, 0.075, 0.05 or 0.025 mg/kg qd; some / other components/aspects of the arthritis; Example 8
Procedure: Female Lewis rats with 17-day developing type II collagen arthritis are treated once daily (qd), orally or intravenously, on days 0-16 of the study with saline vehicle (qd), with Methotrexate (MTX, 0.075, 0.05, or 0.025 mg/kg), or racemic PDX, PDX-10a and PDX-10b (0.075, 0.05, or 0.025 mg/kg). Animals are terminated on study day 17. Efficacy evaluation is based on ankle caliper measurements, expressed as area under the curve (AUC), and terminal hind paw weights, and histopathologic evaluation of ankles and knees.

[7] = both sexes, Day 1, 0.7 mg/kg, range of the mean for males and females and for PDX-10a and PDX-10b, read-out: CLtot
[8] = both sexes, Day 1, 0.7 mg/kg, range of the mean for males and females and for PDX-10a and PDX-10b, read-out: Vdss
[9] = both sexes, Day 1, 0.7 mg/kg, range of the mean for males and females and for PDX-10a and PDX-10b
[10] = both sexes, Day 1, calculated using average BW 8.5 kg, read-out: Vdss relative to BW
[11] = both sexes, Day 281, 0.7 mg/kg, range of the mean for males and females and for PDX-10a and PDX-10b, read-out: CLtot
[12] = both sexes, Day 281, 0.7 mg/kg, range of the mean for males and females and for PDX-10a and PDX-10b, read-out: Vdss
[13] = both sexes, Day 281, 0.7 mg/kg, range of the mean for males and females and for PDX-10a and PDX-10b
[14] = Day 1, calculated using average BW 8.5 kg, read-out: CLtot relative to BW
[15] = both sexes, 0.81 mg/kg, C1D1, calculated using average BW 85 kg, read-out: Vdss relative to BW
[16] = both sexes, 30 mg/m2, human, C1D1, 30 mg/m^2, range of the mean for males and females and for PDX-10a and PDX-10b, read-out: CLtot
[17] = both sexes, 30 mg/m2, human, C1D1, 30 mg/m^2, range of the mean for males and females and for PDX-10a and PDX-10b, read-out: Vdss
[18] = both sexes, 30 mg/m2, human, C1D1, 30 mg/m^2, range of the mean for males and females and for PDX-10a and PDX-10b
[19] = both sexes, 30 mg/m2, human, C1D6 or C2D6, 30 mg/m^2, range of the mean for males and females and for PDX-10a and PDX-10b, read-out: CLtot
[20] = both sexes, 30 mg/m2, human, C1D6 or C2D6, 30 mg/m^2, range of the mean for males and females and for PDX-10a and PDX-10b, read-out: Vdss
[21] = both sexes, 30 mg/m2, human, C1D6 or C2D6, 30 mg/m^2, range of the mean for males and females and for PDX-10a and PDX-10b
[22] = 0.81 mg/kg, C1D1, calculated using average BW 85 kg, read-out: CLtot relative to BW

SMILES	antiarthritic activity relative to racemate and other diastereomer [1]	clearance [2, 7] [mL/min]	Vd [2, 8] [L]	half-life [2, 9] [h]	Vd [2, 10] [L/kg]	clearance [2, 11] [mL/min]	Vd [2, 12] [L]	half-life [2, 13] [h]	clearance [2, 14] [mL/min/kg]	Vd [3, 15] [L/kg]	clearance [3, 16] [mL/min]	Vd [3, 17] [L]	half-life [3, 18] [h]	clearance [3, 19] [mL/min]	Vd [3, 20] [L]	half-life [3, 21] [h]	clearance [3, 22] [mL/min/kg]	pIC50 [4]	xenograft activity relative to racemate and other diastereomer (tumor xenotransplant)	1st inter-CMT CL, POP PK parameter estimate [5] [L/h]	other results
C#CC[C@@H](Cc1cnc2nc(N)nc(N)c2n1)c1ccc(C(=O)N[C@@H](CCC(=O)O)C(=O)O)cc1 (single isomer, unassigned) [PDX-10a]	increased activity relative to racemic PDX and/or PDX-10b	34 to 81	8 to 16	4.4 to 4.9	0.9 to 1.9	58 to 95	15 to 24	4.7 to 5.5	4 to 10	0.4 to 1.2	191 to 417	37 to 105	12 to 18	227 to 495	48 to 162	11 to 16	2 to 5	7.88	increased activity relative to racemic PDX and/or PDX-10b	6.97	2nd inter-CMT CL, POP PK parameter estimate [5]: 1.43 L/h; clearance (CL), POP PK parameter estimate [5]: 35.0 L/h; volume for CMT 1, POP PK parameter estimate [5]: 11.0 L; volume for CMT 2, POP PK parameter estimate [5]: 9.71 L; volume for CMT 3, POP PK parameter estimate [5]: 50.6 L; antiarthritic activity relative to racemate and other diastereomer [6]: increased activity relative to racemic PDX and/or PDX-10b
C#CC[C@H](Cc1cnc2nc(N)nc(N)c2n1)c1ccc(C(=O)N[C@@H](CCC(=O)O)C(=O)O)cc1 (single isomer, unassigned) [PDX-10b]	increased activity relative to racemic PDX and/or PDX-10a	34 to 81	8 to 16	4.4 to 4.9	0.9 to 1.9	58 to 95	15 to 24	4.7 to 5.5	4 to 10	0.4 to 1.2	191 to 417	37 to 105	12 to 18	227 to 495	48 to 162	11 to 16	2 to 5	8.07	increased activity relative to racemic PDX and/or PDX-10a	5.53	higher clearance of PDX-10b compared with PDX-10a ([2]; dogs): 2 fold; higher plasma exposure compared with PDX-10a ([3]; humans): 2 fold; lower volume of distribution at steady state (Vdss) compared with PDX-10a ([3]; humans): ~2 fold; nonrenal clearance (CLnonren) lower compared with PDX-10a ([3]; humans): approximately 50%; renal clearance (CLren) lower compared with PDX-10a ([3]; humans): approximately 50%; 2nd inter-CMT CL, POP PK parameter estimate [5]: 0.601 L/h; clearance (CL), POP PK parameter estimate [5]: 17.2 L/h; volume for CMT 1, POP PK parameter estimate [5]: 8.89 L; volume for CMT 2, POP PK parameter estimate [5]: 6.79 L; volume for CMT 3, POP PK parameter estimate [5]: 12.65 L; antiarthritic activity relative to racemate and other diastereomer [6]: increased activity relative to racemic PDX and/or PDX-10a

Source: US8835433B2, “Optically pure diastereomers of 10-Propargyl-10-deazaaminopterin and methods of using same for the treatment of cancer” (Allos Therapeutics, Inc., priority 2010, dated 2014)
